We go through 6 compounds from article PMC3906128 (Addiction biology, 2011).

Where a name gives a salt, the structure may show the parent alone. Read-outs that look alike come from different tables or passages of the source.

The target of data set [1] is T1, DOP-R1 (Rattus norvegicus, UniProt P33533). Kind of data set: TAN67-stimulated [35S]GTPγS binding in rat brain membranes. As to conditions: for EC50: ethanol-trained rats. The format is biochemical. (GTPγS resists hydrolysis and so accumulates on activated G proteins.)
T1 sequence (P33533 whole entry): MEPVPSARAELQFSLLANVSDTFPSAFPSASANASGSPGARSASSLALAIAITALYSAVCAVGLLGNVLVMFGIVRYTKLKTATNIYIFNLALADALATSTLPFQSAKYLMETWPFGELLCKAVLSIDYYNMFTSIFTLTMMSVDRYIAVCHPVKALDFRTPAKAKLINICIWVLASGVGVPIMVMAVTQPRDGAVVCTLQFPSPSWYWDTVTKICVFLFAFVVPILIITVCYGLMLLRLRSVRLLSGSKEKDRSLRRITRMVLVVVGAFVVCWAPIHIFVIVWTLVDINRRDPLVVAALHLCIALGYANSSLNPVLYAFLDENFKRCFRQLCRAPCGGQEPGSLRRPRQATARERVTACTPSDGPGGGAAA
Data set [2] deals with Long-Evans rats. Kind of data set: Yohimbine stress-induced reinstatement of 10% ethanol seeking.
Data set [3] addresses DOP-R2 (Rattus norvegicus, UniProt P33533). Nature of the data set: Deltorphin II-stimulated [35S]GTPγS binding in rat midbrain membranes. Format: biochemical. The conditions noted are these: Mean (± SEM) EC50 for Midbrain Opioid Stimulation, ethanol-trained rats.
Data set [4] deals with T1, DOP-R1. Kind of data set: Inhibition of TAN67-. The format is biochemical.
The test system of data set [5] is corticosterone (CORT). Nature of the data set: Plasma corticosterone measurement. Format: in vivo, rat. As to conditions: SoRI-9409 5 mg/kg I.P. prior to yohimbine 2 mg/kg I.P.; P > 0.05.
For data set [6], the system named is DOP-R. As to conditions: ref Ananthan et al., 1999, cited from earlier work.
The test system of data set [7] is MOP-R. The conditions noted are these: ref Ananthan et al., 1999, cited from earlier work.
The test system of data set [8] is rats. As to conditions: elevated plus maze test in rats; ref Nielsen et al., 2008; cited from earlier work.
Data set [9] relates to MOP-R. As to conditions: in vitro, ref Wells et al., 2001, Xu et al.; cited from earlier work.
In data set [10] the test system is DOP-R. As to conditions: in vitro, ref Wells et al., 2001, Xu et al.; cited from earlier work.
Data set [11] deals with KOP-R. As to conditions: in vitro, ref Wells et al., 2001, Xu et al.; cited from earlier work.
For data set [12], the system named is rats. The conditions noted are these: 5 mg/kg I.P., ref Nielsen et al., 2008; cited from earlier work.
Data set [13] has as its system DOP-R. The conditions noted are these: brain membranes of high-ethanol consuming rats; ref Nielsen et al., 2008; cited from earlier work.
The mark [14] stands for this setting: read-out: IC50, inhibition of TAN67-stimulated (10 μmol/L) [35S]GTPγS-binding, midbrain membranes, ethanol-trained rats given SoRI-9409-vehicle prior to yohimbine (2 mg/kg I.P.).

Sequence of DOP-R2 (P33533 whole entry): as above

As for `Br.Br.CN1CC[C@]2(c3cccc(O)c3)Cc3nc4ccccc4cc3C[C@H]2C1` [TAN67, SB 205607 dihydrobromide], the “higher TAN67-mediated DOP-R1 activity in yohimbine-treated rats compared to vehicle-treated rats” value in data set [1] (midbrain membranes, from Table 2 EC50 values) was above 700 fold. Besides, the EC50 in data set [1] (read-out: Mean (± SEM) EC50 for Midbrain Opioid Stimulation, midbrain membranes, SoRI-9409 (5 mg/kg I.P.)/Yohimbine (2 mg/kg I.P.)) was 5.2 ± 0.3 µM; in data set [1] (read-out: Mean (± SEM) EC50 for Midbrain Opioid Stimulation, midbrain membranes, SoRI-9409 (5 mg/kg I.P.)/Yohimbine-vehicle), above 100 µM; in data set [1] (read-out: Mean (± SEM) EC50 for Midbrain Opioid Stimulation, midbrain membranes, SoRI-9409-vehicle/Yohimbine (2 mg/kg I.P.)) it was 0.14 ± 0.04 µM; in data set [1] (read-out: Mean (± SEM) EC50 for Midbrain Opioid Stimulation, midbrain membranes, SoRI-9409-vehicle/Yohimbine-vehicle) it was above 100 µM; in data set [1] (read-out: Mean (± SEM) EC50 for TAN67 Stimulation, Striatum, striatal membranes, SoRI-9409 (5 mg/kg I.P.)/Yohimbine (2 mg/kg I.P.)) it was above 100 µM; in data set [1] (read-out: Mean (± SEM) EC50 for TAN67 Stimulation, Striatum, striatal membranes, SoRI-9409 (5 mg/kg I.P.)/Yohimbine-vehicle) it was above 100 µM. The EC50 in [1] (read-out: Mean (± SEM) EC50 for TAN67 Stimulation, Striatum, striatal membranes, SoRI-9409-vehicle/Yohimbine (2 mg/kg I.P.)) was above 100 µM; in data set [1] (read-out: Mean (± SEM) EC50 for TAN67 Stimulation, Striatum, striatal membranes, SoRI-9409-vehicle/Yohimbine-vehicle), above 100 µM.
Consider `COC(=O)[C@@H]1[C@H]2C[C@H]3c4[nH]c5ccccc5c4CCN3C[C@@H]2CC[C@@H]1O` [Yohimbine, reference compound], for which the “active lever presses (30 min)” value in [2] (SoRI-9409-vehicle prior to yohimbine 2 mg/kg I.P., ethanol-extinguished rats, vehicle/vehicle 10.9 ± 1.8) is on record as 48.0 ± 7.0 presses. The Inactive lever presses in data set [2] (SoRI-9409-vehicle, Yohimbine group (2 mg/kg I.P.)) is on record as 2.1 ± 0.7.
With `CC(C)[C@H](NC(=O)[C@H](CCC(=O)O)NC(=O)[C@H](Cc1ccccc1)NC(=O)[C@@H](C)NC(=O)[C@@H](N)Cc1ccc(O)cc1)C(=O)N[C@H](C(=O)NCC(N)=O)C(C)C` [Deltorphin II, [D-Ala^2]-Deltorphin II], the EC50 in [3] (SoRI-9409 (5 mg/kg I.P.)/Yohimbine (2 mg/kg I.P.)) was 22 ± 4 µM; in data set [3] (SoRI-9409 (5 mg/kg I.P.)/Yohimbine-vehicle), above 100 µM; in data set [3] (SoRI-9409-vehicle/Yohimbine (2 mg/kg I.P.)) it was 27 ± 2.9 µM; in [3] (SoRI-9409-vehicle/Yohimbine-vehicle), above 100 µM.
Take `Oc1ccc2c3c1O[C@H]1c4[nH]c5ccccc5c4C[C@@]4(O)[C@@H](C2)N(CC2CC2)CC[C@]314` [naltrindole, naltrindole hydrochloride]: in data set [4], the IC50 came out at 0.046 ± 0.0038 µM.
As for `O=C1/C(=C/c2ccccc2)C[C@@]2(O)[C@H]3Cc4ccc(O)c5c4[C@@]2(CCN3CC2CC2)[C@H]1O5` [BNTX, 7-benzylidenenaltrexone maleate salt hydrate], the IC50 in data set [4] (setting [14]) came to 0.037 ± 0.0048 µM.
Take `Oc1ccc2c3c1O[C@H]1c4ncc(-c5ccc(Cl)cc5)cc4C[C@@]4(O)[C@@H](C2)N(CC2CC2)CC[C@]314` [SoRI-9409, 5′-(4-Chlorophenyl)-17-(cyclopropylmethyl)-6,7-didehydro-3,14-dihydroxy-4,5-alpha-epoxypyrido[2′,3′:6,7] morphinan]: in data set [4] (setting [14]), the IC50 was determined as 0.022 ± 0.0035 µM. Further, in data set [5], the “Plasma CORT levels of SoRI-9409/yohimbine treated rats vs SoRI-9409-vehicle/yohimbine treated rats” value is given as “not different”. In data set [6] (compared to naltrexone), the “higher binding affinity at the DOP-R in comparison to naltrexone” value is “approximately 20 fold”. Besides, the Ki was 0.0022 ± 0.0002 µM in data set [6] (read-out: Ki, binding affinity at the DOP-R) and 0.051 ± 0.008 µM in data set [7] (read-out: Ki, binding affinity for the MOP-R). The “reduced binding affinity for the MOP-R in comparison to naltrexone” value in [7] (compared to naltrexone) was “approximately 20 fold”. In addition, the “anxiogenic or anxiolytic effects” value in [8] was “does not produce anxiogenic or anxiolytic effects”. Also, the “agonist activity at MOP-R” value in data set [9] is “no agonist activity”. For the same compound, the “antagonist activity at the MOP-R” value in data set [9] was “weak antagonist activity”. Further, in [10], the “agonist activity at DOP-R” value is “no agonist activity”. Also, the “antagonist activity at the DOP-R” value in [10] is “potent antagonist activity”. In data set [11], the “agonist activity at KOP-R” value is “no agonist activity”. Also, the “antagonist activity at the KOP-R” value in data set [11] was “weak antagonist activity”. The “effect on ethanol consumption” value in [12] was “selective and long-lasting reductions in ethanol consumption”. Besides, in [13], the “inhibition of DOP-R-mediated [35S]GTPγS binding” value is recorded as “potently inhibits”. Moreover, the Inactive lever presses in data set [2] (SoRI-9409 1 mg/kg, Vehicle group (yohimbine-vehicle)) is given as 0.8 ± 0.4; in data set [2] (SoRI-9409 1 mg/kg, Yohimbine group (2 mg/kg I.P.)), 1.7 ± 0.5; in [2] (SoRI-9409 2.5 mg/kg, Vehicle group (yohimbine-vehicle)) it was 0.3 ± 0.3; in [2] (SoRI-9409 2.5 mg/kg, Yohimbine group (2 mg/kg I.P.)), 1.0 ± 0.4; in [2] (SoRI-9409 5 mg/kg, Vehicle group (yohimbine-vehicle)) it was 0.2 ± 0.1; in data set [2] (SoRI-9409 5 mg/kg, Yohimbine group (2 mg/kg I.P.)), 0.6 ± 0.4. In [2] (SoRI-9409 1-5 mg/kg I.P., yohimbine-vehicle only, P > 0.05), the “effect on responding in rats which did not receive yohimbine” value was “did not affect responding”.

In general, EC50 refers to the concentration that produces a half-maximal response. Broadly, the Ki is the equilibrium dissociation constant of an inhibitor or competing ligand from its target.
